These results are taken from patent publication US9156811B2 (priority 2008, dated 2015).

SMILES strings stand for the structures. Where two headings read alike, the source gives them in different places.

In assay [1] the test system is Trypanosome (T. brucei brucei). Description: In-vitro antitrypanosomal efficacy assay (cell growth, resazurin). It counts as cell-based. The settings on record: T. brucei cell growth.
Method: To column 12, 200 μl media was added to provide a no cells control. Plates were then incubated at 37° C. in an atmosphere of 5% CO2 for 69 hours, before the addition of 20 μl of 500 μM rezasurin solution, and a further incubation period of 4 hours. […] Concentration effect curves were fitted using non-linear regression using XLFit 4.2 and EC50 values determined.
Assay [2] has as its system NCI-H1299. Description: In-vitro antiproliferative assay, NCI-H1299. The settings on record: Homo sapiens, NCI-H1299, 72 h, read-out: IC50 NCI-H1299. It counts as cell-based.
In assay [3] the test system is HT1080. Description: In-vitro antiproliferative assay, HT1080. The settings on record: Homo sapiens, HT-1080, 72 h, read-out: IC50 HT1080.
In assay [4] the test system is C6. Description: In-vitro antiproliferative assay, C6. The settings on record: C6, 72 h, read-out: IC50 C6.
The subject of assay [5] is MDA-MB-231. Briefly: In-vitro antiproliferative assay, MDA-MB-231. The settings on record: Homo sapiens, MDA-MB-231, 72 h, read-out: IC50 MDA-MB-231. In kind it is cell-based, human.
In assay [6] the test system is RT112. Briefly: In-vitro antiproliferative assay, RT112. The settings on record: Homo sapiens, RT-112, 72 h, read-out: IC50 RT112.
Assay [7] relates to OE21. Briefly: In-vitro antiproliferative assay, OE21. It counts as cell-based. The settings on record: Homo sapiens, OE21, 72 h, read-out: IC50 OE21.
Assay [8] deals with OE19. Description: In-vitro antiproliferative assay, OE19. In kind it is cell-based. The settings on record: Homo sapiens, OE19, 72 h, read-out: IC50 OE19.
The test system of assay [9] is SkBr3. Description: In-vitro antiproliferative assay, SkBr3. The settings on record: Homo sapiens, SK-BR-3, 72 h, read-out: IC50 SkBr3.
The test system of assay [10] is HT29. Description: In-vitro antiproliferative assay, HT29. It counts as cell-based, human. The settings on record: Homo sapiens, HT-29, 72 h.
In assay [11] the test system is H460. Briefly: In-vitro antiproliferative assay, H460. The settings on record: Homo sapiens, NCI-H460, 72 h, read-out: IC50 H460.
Assay [12] deals with MRC5. Briefly: In-vitro antiproliferative assay, MRC5. The settings on record: Homo sapiens, MRC5, 72 h, read-out: IC50 MRC5.
For assay [13], the system named is A549. Briefly: In-vitro antiproliferative assay, A549. The settings on record: Homo sapiens, A549, 72 h, read-out: IC50 A549.
Assay [14] concerns HCT116. Briefly: In-vitro antiproliferative assay, HCT116. In kind it is cell-based, human. The settings on record: Homo sapiens, HCT-116, 72 h, read-out: IC50 HCT116.

Consider `Cc1nn(C)c(C)c1N[S+](=O)([O-])c1c(Cl)cc(-c2ccnc(N3CCNCC3)c2)cc1Cl` [DDD85646, 2,6-Dichloro-4-(2-piperazin-1-yl-pyridin-4-yl)-N-(1,3,5-trimethyl-1H-pyrazol-4-yl)-benzenesulfonamide], for which the “ED50 (μM) T. brucei” value in assay [1] was found to be 0.001 µM. The half-maximal inhibitory concentration (IC50) in [2] was determined as 570 nM; in [3], 60 nM; in assay [4], 1160 nM; in assay [5], 230 nM; in [6] it was 330 nM; in assay [7], 290 nM. For the same molecule, the half-inhibitory concentration (IC50) in assay [8] was found to be 660 nM; in assay [9] it was 108 nM; in assay [10] (read-out: IC50 HT29), 112 nM; in assay [10] (read-out: IC50 HT-29), 112 nM; in assay [11], 1320 nM; in assay [12] it was 123 nM. Further, the IC50 in assay [13] came out at 157 nM; in assay [14] it was 234 nM.
